The values below come from patent EP0341104B1, “Substituted flavonoid compounds, their salts, their manufacture and medicines containing these materials” (MERCK PATENT GmbH, priority 1988, dated 1989).

The subject of data set [1] is ristocetin-induced platelet agglutination. As to conditions: Rubin et al, Lancet 1987; cited from earlier work.
For data set [2], the system named is murine renal cancer. As to conditions: Wiltrout et al, J. Immunol. 1988; cited from earlier work.
Data set [3] has as its system natural killer cell activity. Conditions: Wiltrout et al, J. Immunol. 1988; cited from earlier work.
Data set [4] is described as follows: in vivo. Conditions: mouse, 400 mg/kg.
The test system of data set [5] is tumored cells of the type YAC-1. Description: stimulation of the activity of killer cells (splenic cells of treated mice, chromium 51 release). As to conditions: 200 mg/kg intravenously; spleens taken 24 hours after administration; 4 hours incubation with 1 x 10⁴ YAC-1 cells; HBSS controls no measurable activity. Type of data set: in vivo, Mice BALB/C. As for the experimental part:
The determination of the activity of killer cells was made in accordance with the following. Mice BALB/C were treated intraveneously, either with 0.25 ml of HBSS or with 200 mg/kg of a compound of formula (IV). Twenty four hours after administration of the compound, the spleens of the animals were reduced to a state of suspension. Debris and cellular wastes are eliminated by sedimentation and the red corpuscles are lysed with distilled water. The cellular suspension obtained was then filtered over sterile gauze and washed twice with HBSS.
Different quantities of splenic cells are incubated with 1 x 10⁴ tumored cells of the type YAC-1 stained with chromium 51. The length of incubation was 4 hours at 37°C in a RPMI 1640-type medium supplemented with 5% of FBS, pencillin (100 U/ml) streptomycin (100 µg/ml), L-glutamine (20 mM), sodium pyruvate (1 mM), and nonessential amino acids (0.1 mM) in a buffered medium. The floating bodies are removed and a count effectuated.
The results are expressed in lytic units (UL₁₀): where UL₁₀ is the quantity necessary to effectuate lysis of 1 x 10⁴ target cells. For example, it was discovered that the compound of formula 19, provided 80 UL. The compound of formula 25 provided 60 UL. The compound of formula 42 provided 110 UL.

Data set [6] deals with interferon (IFN). Type of data set: in vivo, Mice BALB/C. As to conditions: 200 mg/kg intravenously; unit = quantity of IFN in 1 ml of sample reducing viral lysis by 50%; HBSS controls no induction.
The conditions of data set [7]: after 20 days.

As usually defined, the mortality is the share of the test organisms that died. For `O=C(O)Cc1cccc2c(=O)cc(-c3ccccc3)oc12` [flavone-8-acetic acid], the ristocetin-induced platelet agglutination entry in data set [1] was “inhibits”. Further, the “synergy with interleukin-2 (IL-2) for treatment of murine renal cancer” value in data set [2] is on record as “synergizes with interleukin-2 (IL-2)”. The “systemic natural killer cell activity” value in data set [3] was “augments”. The mortality at 480 h in data set [4] turned out to be 100%. Take `O=C(O)Cc1cccc2c(=O)cc(-c3ccc(-c4ccccc4)cc3)oc12` [formula 19, PHENYL-4-PHENYL)2-OXO-4-4H-(1)-BENZOPYRAN-8-ACETIC ACID]: in data set [5], the “activity of killer cells in lytic units (UL₁₀)” value (shortened to “activity of killer cells”) came out at 80 UL. The Interferon activity in data set [6] was 1000 units of IFN.

Consider `O=C(O)Cc1cccc2c(=O)cc(-c3ccc([N+](=O)[O-])cc3)oc12` [formula 25, (NITRO-4-PHENYL)-2-OXO-4-4H-(1)-BENZOPYRAN-8-ACETIC ACID], for which the “activity of killer cells” value in data set [5] is recorded as 60 UL. Besides, the Interferon activity in data set [6] was 1000 units of IFN. For the compound `O=C(O)Cc1ccc2c(=O)cc(-c3ccccc3)oc2c1` [formula 29, OXO-4-PHENYL-2-4H-(1) BENZOPYRAN-7-ACETIC ACID], in data set [4], the mortality at 480 h was found to be 10%. With `C=C(C(=O)O)c1cccc2c(=O)cc(-c3ccccc3)oc12` [formula 42, (PHENYL-2-OXO-4-4H-(1) BENZOPYRAN-8-YL)-2-ACRYLIC ACID], in data set [5], the “activity of killer cells” value worked out at 110 UL.

For `Nc1nc(-c2cccc3c(=O)cc(-c4ccccc4)oc23)cs1` [formula 58, (AMINO-2-THIAZOL-4-YL)-8-PHENYL-2-4H-[1] BENZOPYRANONE-4], the mortality rate entry in data set [7] is “no deaths”.

With `O=C(O)c1cccc2ccc3c(=O)cc(-c4ccccc4)oc3c12` [formula 67, OXO-4-PHENYL-2-4H-NAPHTO[1,2-b]PYRANONE-4], in data set [6], the Interferon activity was 1000 units of IFN.
